Data: patent US8476197B2, “Aminopropenoates as fungicides” (priority 2009, dated 2013)
Marks after values point to notes of the source that are not given here.

Conditions: pH 2.7

| Structure (SMILES) | Log P |
| --- | --- |
| CCOC(=O)C(C#N)=C(NC(C)C1CCCO1)c1sccc1C(F)(F)F (mixture of isomers) [Compound 172] | 3.55^[a] |
| COC(=O)C(C#N)=C(NC(C)C1CCCO1)c1sc(C)nc1C(F)(F)F (mixture of isomers) [Compound 178] | 1.97^[a] |
| CCOC(=O)C(C#N)=C(NC(C)C1CCCO1)c1sccc1Br (mixture of isomers) [Compound 186] | 3.35^[a] |
| CCOC(=O)C(C#N)=C(NC(C)c1ccc(Cl)s1)c1cccnc1Cl (mixture of isomers) [Compound 281] | 3.8^[a] |
| CCOC(=O)C(C#N)=C(NC(C)c1nc(C(C)C)no1)c1cccnc1Cl (mixture of isomers) [Compound 282] | 3.2^[a] |
| CCOC(=O)C(C#N)=C(NC(C)CN1CCCC1)c1cccnc1Cl (mixture of isomers) [Compound 283] | 3.35^[a] |
| CCOC(=O)C(C#N)=C(NC(C)c1ccc(C(F)(F)F)cn1)c1cccnc1Cl (mixture of isomers) [Compound 285] | 3.5^[a] |
| CCOC(=O)C(C#N)=C(NC(C)c1ncc(Br)cc1Cl)c1cccnc1Cl (mixture of isomers) [Compound 287] | 3.9^[a] |
| CCOC(=O)C(C#N)=C(NC(C)c1ncc(C(F)(F)F)cc1Cl)c1cccnc1Cl (mixture of isomers) [Compound 288] | 3.9^[a] |
| CCOC(=O)C(C#N)=C(NC(C)c1ccccn1)c1ccnc(Cl)c1Cl (mixture of isomers) [Compound 289] | 3.04^[a] |
| CCOC(=O)C(C#N)=C(NC(C)c1cscn1)c1ccnc(Cl)c1Cl (mixture of isomers) [Compound 290] | 2.92^[a] |
| CCOC(=O)C(C#N)=C(NC(C)c1nccs1)c1ccnc(Cl)c1Cl (mixture of isomers) [Compound 291] | 2.96^[a] |
| CCOC(=O)C(C#N)=C(NC(C)c1ccccn1)c1cccnc1Cl (mixture of isomers) [Compound 292] | 2.5^[a] |
| CCOC(=O)C(C#N)=C(NC(C)Cc1nccs1)c1cccnc1Cl (mixture of isomers) [Compound 294] | 2.4^[a] |
| CCOC(=O)C(C#N)=C(NC(C)Cc1ccccn1)c1cccnc1Cl (mixture of isomers) [Compound 295] | 1.82^[a] |
| CCOC(=O)C(C#N)=C(NC(C)Cc1cccnc1)c1cccnc1Cl (mixture of isomers) [Compound 296] | 1.57^[a] |
| CCOC(=O)C(C#N)=C(NC(C)c1nccs1)c1ccncc1Br (mixture of isomers) [Compound 297] | 2.4^[a] |
| CCOC(=O)C(C#N)=C(NC(C)c1cscn1)c1ccncc1Br (mixture of isomers) [Compound 298] | 2.4^[a] |
| CCOC(=O)C(C#N)=C(NC(C)c1ccccn1)c1ccncc1Br (mixture of isomers) [Compound 299] | 2.5^[a] |
| CCOC(=O)C(C#N)=C(NC(C)c1ccccn1)c1ccncc1F (mixture of isomers) [Compound 300] | 2.28^[a] |
| CCOC(=O)C(C#N)=C(NC(C)c1cscn1)c1ccncc1F (mixture of isomers) [Compound 301] | 2.22^[a] |
| CCOC(=O)C(C#N)=C(NC(C)Cc1nccs1)c1ccncc1F (mixture of isomers) [Compound 302] | 2.19^[a] |
| CCOC(=O)C(C#N)=C(NC(C)c1cscn1)c1ccncc1C(F)(F)F (mixture of isomers) [Compound 303] | 2.6^[a] |
| C=CCOC(=O)C(C#N)=C(NC(C)c1nccs1)c1cn(C)nc1C(F)F (mixture of isomers) [Compound 305] | 2.59^[a] |
| C=CCOC(=O)C(C#N)=C(NC(C)c1ccccn1)c1cn(C)nc1C(F)F (mixture of isomers) [Compound 307] | 2.56^[a] |

Same assay, conditions: pH 7.5

| Structure (SMILES) | Log P |
| --- | --- |
| CC(NC(=C(C#N)C(=O)OC(C)C(F)(F)F)c1cccnc1Cl)c1nccs1 (mixture of isomers) [Compound 56] | 2.94 |
| CCOC(=O)C(C#N)=C(NC(C)c1nc(C(=O)N(C)C)cs1)c1cccnc1Cl (mixture of isomers) [Compound 304] | 2.08 |
